In patent publication US6979686B1, “Substituted pyrazoles as p38 kinase inhibitors” (Pharmacia Corporation, priority 2001, dated 2005):
Like-named read-outs stand apart in the source and are kept apart here.

Legend:
human p38 kinase alpha = target: T1, human p38 kinase alpha (Homo sapiens, UniProt Q16539); test: p38 kinase in vitro assay, phosphorylation of biotinylated PHAS-I with 32P-ATP; assay type: biochemical; conditions: for P38 alpha kinase % inhib @ conc. (uM): @ 1.0 uM
T1 construct: GST (N, cleaved yes); made in house; host or cells: E. coli DH10B
T1 sequence (Q16539 whole entry): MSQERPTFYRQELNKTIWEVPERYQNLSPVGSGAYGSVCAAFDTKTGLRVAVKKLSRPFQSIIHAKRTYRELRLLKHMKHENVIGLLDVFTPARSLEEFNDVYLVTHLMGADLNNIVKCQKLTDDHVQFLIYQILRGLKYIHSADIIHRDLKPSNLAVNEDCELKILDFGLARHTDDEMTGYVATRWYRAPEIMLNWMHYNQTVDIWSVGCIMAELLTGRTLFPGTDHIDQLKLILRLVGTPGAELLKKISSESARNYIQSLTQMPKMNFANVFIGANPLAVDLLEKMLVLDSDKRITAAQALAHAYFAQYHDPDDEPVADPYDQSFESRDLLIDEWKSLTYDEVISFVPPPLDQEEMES

[1] = system: TNF-α, U937 human histiocytic lymphoma cell line; test: LPS stimulation of TNF production by U937 cells; assay type: cell-based; conditions: for U937 Cell % inhib @ conc. (uM): @ 1.0 uM; for U937 Cell % inhib @ conc. / U937 Cell IC50, uM or % inhib @ conc. (uM): % inhib: @ 10.0 uM; for inhibition at 1 µM: U-937, @ 1.0 uM, read-out: U937 Cell % inhib @ conc.
Outline: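 U937 cells differentiated 24 h with 20 ng/ml PMA, rested 24-48 h, used at 2 million cells/ml. Compounds in 0.1% DMSO final; LPS (E. coli, 100 ng/ml final) stimulation for 4 h at 37° C. Released TNF-α measured by ELISA; IC50 (μM).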

[2] = TNF production, U937 cells stimulated with LPS
[3] = TNF production, LPS-stimulated U937 cells
[4] = in vitro P38-alpha kinase, read-out: P38 alpha kinase IC50
[5] = Homo sapiens, TNF production, LPS-stimulated U937 cells
[6] = in vitro P38-alpha kinase inhibition, read-out: P38 alpha kinase IC50
[7] = TNF production, U937 cells stimulated with LPS, read-out: U937 Cell IC50, uM or % inhib @ conc. (uM): IC50
[8] = Homo sapiens, U-937, TNF production, human U937 cells stimulated with LPS, read-out: U937 Cell IC50
[9] = Homo sapiens, TNF production in human U937 cells stimulated with LPS

## O=C(NCCc1[nH]nc(-c2ccc(F)cc2)c1-c1ccncc1)Nc1ccc(Br)cc1 [Example B-0938]
Human p38 kinase alpha
  P38 alpha kinase % inhib @ conc. (uM): 51.0% @
[1]; [2]
  U937 Cell % inhib @ conc. (uM): 29.0% @

## CCCCCc1cccc(C(C)NC(=O)Cn2nc(-c3ccc(F)cc3)c(-c3ccncc3)c2C)c1 (stereo not drawn) [Example B-2354]
Human p38 kinase alpha; @ 10.0 uM
  P38 alpha kinase % inhib @ conc.: 65.0% @
[1]; [3]
  U937 Cell % inhib @ conc.: 25.0% @

## O=C(NCCCc1[nH]nc(-c2ccc(F)cc2)c1-c1ccncc1)C1CCC1 [Example B-1165]
Human p38 kinase alpha
  P38 alpha kinase % inhib @ conc. (uM): 66.0% @
[1]; TNF production, human U937 cells stimulated with LPS, read-out: U937 Cell IC50
  IC50: 0.99 µM

## Cc1c(-c2ccncc2)c(-c2ccc(F)cc2)nn1CC(=O)Nc1ccc(S(=O)(=O)C(F)F)cc1 [Example B-2446]
Human p38 kinase alpha; @ 10.0 uM
  P38 alpha kinase IC50, uM or % inhib @ conc. (uM): % inhib: 90.0% @
[1]; [2]
  U937 Cell IC50, uM or % inhib @ conc. (uM): % inhib: 28.0% @

## O=C(NCCCc1[nH]nc(-c2ccc(F)cc2)c1-c1ccncc1)NCc1cccnc1 [Example B-1310]
Human p38 kinase alpha; [4]
  IC50: 0.12 µM
[1]; [5]
  inhibition at 1 µM: 11%

## CC(=O)OC(C)C(=O)NC(Cc1ccccc1)c1[nH]nc(-c2ccc(F)cc2)c1-c1ccncc1 (stereo not drawn) [Example B-0809]
Human p38 kinase alpha; [6]
  IC50: 1.22 µM
[1]; [2]
  U937 Cell % inhib @ conc. (uM): 7.0% @

## C[C@@H](NC(=O)NCCc1[nH]nc(-c2ccc(F)cc2)c1-c1ccncc1)c1ccccc1 [Example B-1045]
Human p38 kinase alpha
  P38 alpha kinase % inhib @ conc. (uM): 78.0% @
[1]; [2]
  U937 Cell % inhib @ conc. (uM): 25.0% @

## Cc1c(-c2ccncc2)c(-c2ccc(F)cc2)nn1CC(=O)NC(C)Cc1c[nH]c2ccccc12 (stereo not drawn) [Example B-2328]
Human p38 kinase alpha; @ 10.0 uM
  P38 alpha kinase % inhib @ conc.: 65.0% @
[1]; [3]
  U937 Cell % inhib @ conc.: 28.0% @

## Cc1c(-c2ccncc2)c(-c2ccc(F)cc2)nn1CC(=O)N(C)CCCC1c2ccccc2CCc2ccccc21 [Example B-2387]
Human p38 kinase alpha; @ 100.0 uM
  P38 alpha kinase IC50, uM or % inhib @ conc. (uM): % inhib: 50.0% @
[1]; [7]
  IC50: > 10 µM

## Cc1c(-c2ccncc2)c(-c2ccc(F)cc2)nn1CC(=O)N(C)CC(=O)N(C)C [Example B-2412]
Human p38 kinase alpha; @ 10.0 uM
  P38 alpha kinase IC50, uM or % inhib @ conc. (uM): % inhib: 40.0% @
[1]; [2]
  U937 Cell IC50, uM or % inhib @ conc. (uM): % inhib: 31.0% @

## O=C(c1cccs1)N1CCC(c2[nH]nc(-c3ccc(F)cc3)c2-c2ccncc2)CC1 [Example B-1384]
Human p38 kinase alpha; [4]
  IC50: 0.57 µM
[1]; [8]
  IC50: 0.37 µM

## CC(C)=CC(=O)NCCc1[nH]nc(-c2ccc(F)cc2)c1-c1ccncc1 [Example B-0998]
Human p38 kinase alpha
  P38 alpha kinase % inhib @ conc. (uM): 67.0% @
[1]; [2]
  U937 Cell % inhib @ conc. (uM): 25.0% @

## O=S(=O)(c1ccccc1C(F)(F)F)N1CCC(c2[nH]nc(-c3ccc(F)cc3)c2-c2ccncc2)CC1 [Example B-1460]
Human p38 kinase alpha; [4]
  IC50: 0.96 µM
[1]; [5]
  inhibition at 1 µM: 29%

## NS(=O)(=O)c1ccc(CNC(=O)NCCCc2[nH]nc(-c3ccc(F)cc3)c2-c2ccncc2)cc1 [Example B-1308]
Human p38 kinase alpha; [4]
  IC50: < 0.1 µM
[1]; [8]
  IC50: > 1 µM

## CNC(=O)NC(Cc1ccccc1)c1[nH]nc(-c2ccc(F)cc2)c1-c1ccncc1 (stereo not drawn) [Example B-0730]
Human p38 kinase alpha; [6]
  IC50: 0.25 µM
[1]; [9]
  inhibition at 1 µM: 11%

## O=S(=O)(c1ccc(F)c(F)c1)N1CCC(c2[nH]nc(-c3ccc(F)cc3)c2-c2ccncc2)CC1 [Example B-1456]
Human p38 kinase alpha; [4]
  IC50: 1.29 µM
[1]; [8]
  IC50: > 1 µM

## COc1ccc(CC(=O)NC(Cc2ccccc2)c2[nH]nc(-c3ccc(F)cc3)c2-c2ccncc2)cc1OC (stereo not drawn) [Example B-0847]
Human p38 kinase alpha; [6]
  IC50: 0.73 µM
[1]; Homo sapiens, TNF production, U937 cells stimulated with LPS
  inhibition at 1 µM: 21%

## N#Cc1cccc(S(=O)(=O)N2CCC(c3[nH]nc(-c4ccc(F)cc4)c3-c3ccncc3)CC2)c1 [Example B-1469]
Human p38 kinase alpha; [4]
  IC50: 0.37 µM
[1]; [5]
  inhibition at 1 µM: 14%

## Cc1[nH]nc(-c2ccc(C(F)(F)F)cc2)c1-c1ccncc1 [Example A-48]
Human p38 kinase alpha; activated human p38 kinase alpha, PHAS-I substrate, 50 μM unlabeled ATP, read-out: p38 kinase IC50
  IC50: 1.8 µM
[1]; Table 5, LPS-stimulated U937 cells, TNF-α, read-out: U937 Cell Assay IC50
  IC50: 0.522 µM

## COc1ccc(CN(CCc2ccccc2)C(=O)Cn2nc(-c3ccc(F)cc3)c(-c3ccncc3)c2C)cc1 [Example B-2396]
Human p38 kinase alpha; @ 10.0 uM
  P38 alpha kinase IC50, uM or % inhib @ conc. (uM): % inhib: 75.0% @
[1]; [7]
  IC50: > 10 µM

## O=C(NC(Cc1ccccc1)c1[nH]nc(-c2ccc(F)cc2)c1-c1ccncc1)c1ccccn1 (stereo not drawn) [Example B-0823]
Human p38 kinase alpha; [6]
  IC50: 2.39 µM
[1]; [8]
  IC50: > 1 µM

## Cc1ccc(S(=O)(=O)NC(Cc2ccccc2)C(=O)NC(C)c2[nH]nc(-c3ccc(F)cc3)c2-c2ccncc2)cc1 (stereo not drawn) [Example B-0560]
Human p38 kinase alpha; [6]
  IC50: 2.57 µM
[1]; [9]
  inhibition at 1 µM: 31%

## O=C(NC(Cc1ccccc1)c1[nH]nc(-c2ccc(F)cc2)c1-c1ccncc1)c1ccno1 (stereo not drawn) [Example B-0808]
Human p38 kinase alpha; [6]
  IC50: 3.09 µM
[1]; [8]
  IC50: > 1 µM

## O=S(=O)(c1ccc(C(F)(F)F)cc1)N1CCC(c2[nH]nc(-c3ccc(F)cc3)c2-c2ccncc2)CC1 [Example B-1474]
Human p38 kinase alpha; [4]
  IC50: 1.23 µM
[1]; [5]
  inhibition at 1 µM: 31%
